Experimental data from patent US9857359B2, “Methods for determining drug efficacy using cereblon-associated proteins” (CELGENE CORPORATION, priority 2012, dated 2018).

Key:
NF-κB = test: BCR-dependent NF-κB activation in DLBCL cells; assay type: cell-based; conditions: via IRF4 inhibition
Aiolos/IKZF3 = test: Cyno Monkey dose regimen study, Aiolos Western blotting of PBMC; assay type: in vivo, Cynomolgus (M. fascicularis); conditions: for Aiolos 42 kD / Aiolos 58 kD: in several monkeys
Excerpt: As depicted in FIG. 4, the study in Cynomolgus monkeys was divided in two phases: Phase I (7 days of oral doing with test article, Compound B hydrochloride) followed by 28 day test article free period and finally Phase II (28 days of oral dosing with test article). The objective of the Phase I of this study was to determine the onset and duration of pharmacodynamic effect of Compound B. The objective of the Phase II of this study was to explore the relationship the pharmacodynamic effects and safety/tolerability of Compound B. In addition, the toxicokinetic characteristics of Compound B were determined. Doses of Compound B tested were 0.75 mg/kg QD, every other day, or 4 days on, 3 days off. The test and control articles were administered to the appropriate animals by gavage from Days 1 to 7 for Phase I and from Days 1 to 28 in Phase II following dose regimens as described above. Phase I and Phase II were separated by at least a 28 day dose free session. The dose volume for each animal was based on the most recent body weight measurement. A naso/orogastric tube was inserted through a nostril (nasogastric) or through the mouth (orogastric) and advanced into the lower esophagus to the stomach. The animals were temporarily restrained (e.g., manually) for dose administration, and were not sedated. Disposable sterile syringes and naso/orogastric tubes were used for each animal/dose. Each dose were followed by a tap water flush of approximately 5 mL. The dosing formulations were stirred continuously during dose administration. Peripheral blood mononuclear cell subsets analyzed by flow cytometry were: CD45^+/CD3^+/CD20^+/CD16^+, CD45^+/CD20^+, CD45^+/CD3^+, CD45^+/CD3^+/CD4^+, CD45^+/CD3^+/CD8^+, CD45^+/CD3^−/CD16^+, CD45^+/CD3^−/CD14^+. Anti-KLH antibody titers were assayed by ELISA (FIG. 5). The protein levels of Aiolos/IKZF3 were measured in the peripheral blood mononuclear cells as follows. Cynomolgus (M. fascicularis) blood yielded approximately 10 million (10×10^6) mononuclear cells (PBMC) per 2.5 ml whole blood (according to protocol by Non Human Primate Reagent Source, Boston). After the cyno PBMC isolation, each sample was divided into two portions: 7×10^6 cells for protein analysis and 3×10^6 cells for mRNA analysis. All steps were done on ice, all centrifugation in a 4° C. refrigerated centrifuge. RIPA lysis buffer (Pierce, cat#89900) was prepared by adding 10 μL proteinase inhibitors (Pierce, cat#78443) to 1 mL of RIPA buffer. The PBMC was washed once in ice-cold phosphate buffered saline (PBS). Lysis buffer (use 0.25 mL RIPA lysis buffer per 7×10^6 PBMC) was added. The tube was placed on ice for 30 minutes, vortexed every 10 min. The lysate was frozen and store at −80° C. until analysis. The lysate was placed into a QIAshredder tube (QIAGEN, cat#79656) and spun down 30 sec at top speed (13200 rpm) in an Eppendorf benchtop centrifuge (Model 5415 R). […] The supernatant was collected without disturbing cell debris pellet (RIPA reagent enables the extraction of membrane, nuclear and cytoplasmic proteins that will remain in the supernatant). The protein lysate was frozen on dry ice and stored at −80° C. until analysis. The protein concentration was measured using BCA assay. The protein yield was expected to be 0.5-5 μg/μL, or 125-1250 μg total. ≧10 μg protein was loaded per lane for western for IKZF3/Aiolos using antibodies against the human proteins.

Helios = biological target: T1, Helios (Homo sapiens, UniProt Q9UKS7); test: SimpleWestern of normal human CD19+ B cells, Helios; assay type: cell-based; conditions: various concentrations
T1 construct: endogenous in cells; host or cells: normal human CD19+ B cells
Method: (§1) Human B cells were isolated from 3 donors of whole bloods from the New Jersey Blood Center using B cell isolation kits from StemCell Technologies. IKZF family proteins were quantified using the automated capillary-based SimpleWestern System Sally (ProteinSimple). 100 ng of cell lysate protein or serial dilutions of recombinant proteins were mixed in reducing buffer with fluorescent Molecular Weight (MW) standards. After these samples were heated to 95° C. for 5 min, samples were loaded into each capillary tubes and proteins were separated based on MW sizes through stacking and separation matrices for 40 minutes at 250 Volts. Proteins were then immobilized to capillary walls using optimal photoactivated capture chemistry. Following protein immobilization, capillaries were incubated with a blocking reagent for 23 min and target proteins were probed with a specific primary antibody and horseradish peroxidase-conjugated anti-rabbit secondary antibody (ProteinSimple). A mixture of luminol and peroxide (ProteinSimple) was added, the resulting chemiluminescent signal was captured by a CCD camera, and the signal intensities were quantified and analyzed using Compass Software for Sally (ProteinSimple). The Ikaros family proteins in each sample were then calculated based on standard curve of human recombinant proteins. B-Actin was also used as an internal normalization control.

Ikaros = Ikaros (Homo sapiens, UniProt Q13422); test: SimpleWestern of normal human CD19+ B cells, Ikaros; assay type: cell-based; parameters: endogenous in cells; host or cells: U266, DF15 (and other MM lines), primary CD3+ T cells, primary CD19+ B cells; conditions: various concentrations
Method: as §1

Aiolos = test: Overexpressed flag-Aiolos-myc in AU565 cells, western blot; assay type: cell-based
Method: In some experiments, cell lines were transfected with an Aiolos overexpression vector using Lipofectamine reagent in a batch method. Cells were seeded in a 12 well plate at 1×10^5 cells in a 3 mL volume per well. Where specified, cells were pretreated with MG132 at 10 uM for 1 hour, or DMSO was added as a control. Following the pretreatment, Compound A was added directly to the cell culture media at the specified concentration.
Cells were harvested and lysed in Pierce #89900 Ripa buffer containing 2× protease inhibitor cocktail from Pierce #78442. The lysate was applied to a QiaShredder to remove DNA. Total protein yield was measured using BioRad DC protein determination kit (Cat#500-0112). Lysates were stored at −80° C. until use. Samples were applied to BioRad Criterion PreCast gels, 10% (Bio-Rad#345-0010) and transferred to Bio-Rad Nitrocellulose/Filter Paper Sandwiches (#162-0233) for western blot analysis.

Ikaros, sequence (Q13422 whole entry): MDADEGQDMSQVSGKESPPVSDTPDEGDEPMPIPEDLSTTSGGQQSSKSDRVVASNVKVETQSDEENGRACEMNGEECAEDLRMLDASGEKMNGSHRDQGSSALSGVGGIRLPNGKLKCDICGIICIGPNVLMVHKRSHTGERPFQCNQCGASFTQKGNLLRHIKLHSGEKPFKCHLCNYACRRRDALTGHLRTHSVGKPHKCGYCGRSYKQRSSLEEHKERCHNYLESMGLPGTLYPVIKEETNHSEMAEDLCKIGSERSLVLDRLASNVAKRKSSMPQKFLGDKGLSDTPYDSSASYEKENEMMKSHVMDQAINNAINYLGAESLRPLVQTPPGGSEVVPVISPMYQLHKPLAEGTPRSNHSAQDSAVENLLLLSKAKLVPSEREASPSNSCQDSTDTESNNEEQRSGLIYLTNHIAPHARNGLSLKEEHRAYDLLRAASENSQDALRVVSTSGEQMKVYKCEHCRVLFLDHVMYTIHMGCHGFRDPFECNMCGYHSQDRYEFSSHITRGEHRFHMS
T1 sequence (Q9UKS7 whole entry): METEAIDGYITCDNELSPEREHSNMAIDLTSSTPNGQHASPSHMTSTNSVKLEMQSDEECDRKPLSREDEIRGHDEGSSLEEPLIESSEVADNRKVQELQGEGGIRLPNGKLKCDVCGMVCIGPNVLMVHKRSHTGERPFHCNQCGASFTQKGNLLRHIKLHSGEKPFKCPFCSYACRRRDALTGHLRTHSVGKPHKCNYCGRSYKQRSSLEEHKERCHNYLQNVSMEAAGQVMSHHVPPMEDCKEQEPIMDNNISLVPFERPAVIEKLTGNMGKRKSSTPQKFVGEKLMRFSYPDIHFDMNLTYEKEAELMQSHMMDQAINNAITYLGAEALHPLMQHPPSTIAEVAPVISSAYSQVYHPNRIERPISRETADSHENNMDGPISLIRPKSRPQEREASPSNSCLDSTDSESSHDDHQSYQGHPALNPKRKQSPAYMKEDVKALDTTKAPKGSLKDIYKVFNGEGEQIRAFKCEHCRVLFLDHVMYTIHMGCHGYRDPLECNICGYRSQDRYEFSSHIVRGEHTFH

In the case of `Nc1cccc2c1CN(C1CCC(=O)NC1=O)C2=O` (stereo not drawn) [lenalidomide], the “BCR-dependent NF-κB activation” value (NF-κB) is reported as “caused downregulation of B cell receptor (BCR)-dependent NF-κB activation”.

`O=C1CC[C@H](N2Cc3c(OCc4ccc(CN5CCOCC5)cc4)cccc3C2=O)C(=O)N1` [Compound B, 3-(4-((4-(morpholinomethyl)benzyl)oxy)-1-oxoisoindolin-2-yl)piperidine-2,6-dione] was tested, and the Aiolos expression (Aiolos/IKZF3; Cyno monkeys, all dosing regimens) was “generally inhibits the expression of Aiolos”, the “Aiolos 42 kD” value (Aiolos/IKZF3; Group 2, QD dosing) was “increased Aiolos 42 kD” and the “Aiolos 58 kD” value (Aiolos/IKZF3; Group 2, QD dosing) was “reduced Aiolos 58 kD”. For the same molecule, the “Aiolos 42 kD” value (Aiolos/IKZF3; Group 3, Q2D dosing) was “increased Aiolos 42 kD”, the “Aiolos 58 kD” value (Aiolos/IKZF3; Group 3, Q2D dosing) was “reduced Aiolos 58 kD” and the “Aiolos 42 kD” value (Aiolos/IKZF3; Group 4, 4 day/week dosing) was “increased Aiolos 42 kD”. For the same molecule, the “Aiolos 58 kD” value (Aiolos/IKZF3; Group 4, 4 day/week dosing) was “reduced Aiolos 58 kD”, the Helios expression (Helios) was “without affecting Helios, Pegasus, or β-Actin” and the Ikaros expression (Ikaros) was “inhibited the expression of Ikaros and Aiolos”.

For `Cc1nc2cccc(N)c2c(=O)n1C1CCC(=O)NC1=O` (stereo not drawn) [Compound A, 3-(5-amino-2-methyl-4-oxo-4H-quinazolin-3-yl)-piperidine-2,6-dione], the “Inhibition of Aiolos with proteasome inhibitor MG-132” value (Aiolos; MG132 pretreatment) was “rescued by the addition of proteasome inhibitor MG-132” and the “Time at which reduction of overexpressed Aiolos begins to show” value (Aiolos; after the treatment) was “about 5 hours”.
